Data taken from patent publication US5770573A, “CS-1 peptidomimetics, compositions and methods of using the same” (Cytel Corporation, priority 1995, dated 1998).
Square brackets hold non-standard residues; d marks the D form. Peptide text beside a SMILES is read from it. * marks the point of attachment. PhAc = O=C(Cc1ccccc1)*

What was measured:
VLA-4 = VLA-4 (Homo sapiens, UniProt P05556+P13612); assay: In vitro binding inhibition of 51Cr-labeled Jurkat cells to solid phase-bound CS-1 compound (SEQ ID NO:1); assay type: cell-based; parameters: inflammatory cells that contain the VLA-4 receptor [Jurkat cells; host or cells: Jurkat (human T lymphoblastic line)
Method in brief: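 51Cr-labeled human Jurkat cells were preincubated with compound 30 min at about 22° C, then allowed to bind to wells coated with CS-1 peptide or CS-1-OVA for 30 min at 37° C. After washing, bound cells were lysed with SDS and counted. IC50 is the concentration halving binding, normalized to SEQ ID NO: 3.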

[1] = tested on: Porcine peripheral blood lymphocytes; assay: In vitro porcine allograft model: transendothelial lymphocyte migration; assay type: cell-based; settings: 10 μg/ml in the medium; IL-1β-stimulated SMC
Experimental: A similar study was carried out in vitro using porcine coronary artery endothelial cells (EC; as are present in the IEL) and smooth muscle cells (SMC; as are present in the medial layer of the artery). The two cell types were cultured using a membrane transwell system, with the SMC on the bottom layer in M-199 medium (Gibco Labs.). The SMC were stimulated with 100 ng/ml of interleukin-1β (IL-1β) for 24 hours prior to the start of the assay. Porcine peripheral blood lymphocytes were separated by Ficoll-Hypaque, radiolabeled and incubated overnight (about 18 hours) on the EC.
Transendothelial lymphocyte migration in the IL-1β-stimulated SMC was observed as compared to unstimulated SMC (p<0.05).

VLA-4, sequence (P13612 34-1032): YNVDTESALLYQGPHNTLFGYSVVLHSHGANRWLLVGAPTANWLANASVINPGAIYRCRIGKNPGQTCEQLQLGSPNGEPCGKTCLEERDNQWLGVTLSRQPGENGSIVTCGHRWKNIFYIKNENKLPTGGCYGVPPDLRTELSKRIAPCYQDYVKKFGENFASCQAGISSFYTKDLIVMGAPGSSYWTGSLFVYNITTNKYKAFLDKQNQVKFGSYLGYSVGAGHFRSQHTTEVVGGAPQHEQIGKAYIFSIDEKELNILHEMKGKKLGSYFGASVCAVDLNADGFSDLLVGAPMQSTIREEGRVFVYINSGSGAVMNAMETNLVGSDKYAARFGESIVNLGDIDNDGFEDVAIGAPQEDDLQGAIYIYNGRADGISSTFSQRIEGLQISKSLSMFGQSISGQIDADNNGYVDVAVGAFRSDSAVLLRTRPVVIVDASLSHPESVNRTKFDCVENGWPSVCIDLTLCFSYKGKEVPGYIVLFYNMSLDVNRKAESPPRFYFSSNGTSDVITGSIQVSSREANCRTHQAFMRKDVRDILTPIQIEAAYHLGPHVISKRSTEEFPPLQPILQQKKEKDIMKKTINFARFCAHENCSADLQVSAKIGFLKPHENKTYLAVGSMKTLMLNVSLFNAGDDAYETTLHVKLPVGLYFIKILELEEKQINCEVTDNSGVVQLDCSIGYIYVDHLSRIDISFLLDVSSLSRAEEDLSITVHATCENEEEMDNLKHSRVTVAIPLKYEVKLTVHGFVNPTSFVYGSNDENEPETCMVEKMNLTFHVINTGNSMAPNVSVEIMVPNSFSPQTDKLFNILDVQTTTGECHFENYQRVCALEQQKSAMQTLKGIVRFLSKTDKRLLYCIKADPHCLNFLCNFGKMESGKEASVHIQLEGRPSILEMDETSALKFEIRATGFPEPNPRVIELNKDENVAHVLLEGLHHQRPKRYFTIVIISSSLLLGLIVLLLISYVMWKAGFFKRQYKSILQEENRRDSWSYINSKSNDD
VLA-4, sequence (P05556 21-798): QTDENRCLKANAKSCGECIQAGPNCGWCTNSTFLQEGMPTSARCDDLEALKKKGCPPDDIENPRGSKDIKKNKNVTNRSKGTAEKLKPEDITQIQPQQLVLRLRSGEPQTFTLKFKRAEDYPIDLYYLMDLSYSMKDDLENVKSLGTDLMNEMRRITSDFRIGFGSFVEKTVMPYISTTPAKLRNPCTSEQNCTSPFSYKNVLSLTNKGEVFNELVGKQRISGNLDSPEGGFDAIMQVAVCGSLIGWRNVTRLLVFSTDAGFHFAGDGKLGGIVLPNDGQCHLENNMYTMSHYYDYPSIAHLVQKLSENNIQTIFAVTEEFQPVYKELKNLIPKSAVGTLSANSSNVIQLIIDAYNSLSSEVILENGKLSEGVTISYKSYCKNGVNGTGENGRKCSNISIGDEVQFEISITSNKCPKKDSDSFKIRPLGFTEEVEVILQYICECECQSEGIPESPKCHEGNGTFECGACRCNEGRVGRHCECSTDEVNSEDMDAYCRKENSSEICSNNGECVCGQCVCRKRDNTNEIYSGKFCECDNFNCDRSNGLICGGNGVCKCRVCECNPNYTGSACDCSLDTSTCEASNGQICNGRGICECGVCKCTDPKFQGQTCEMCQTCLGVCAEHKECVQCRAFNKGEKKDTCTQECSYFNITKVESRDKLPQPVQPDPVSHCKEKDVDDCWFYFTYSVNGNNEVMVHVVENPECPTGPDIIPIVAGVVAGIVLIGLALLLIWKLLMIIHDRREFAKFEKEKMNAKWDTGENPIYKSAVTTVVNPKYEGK

SMILES: CC(C)C[C@H](NC(=O)[C@H](CC(=O)O)NC(=O)Cc1ccccc1)C(=O)N[C@@H](Cc1ccccc1)C(=O)N1CCC[C@@H]1C(N)=O [Compound ID No. 1066.02, N-phenylacetyl-Asp-Leu-Phe-D-Pro-NH2, reference compound] (PhAc-DLF[dP]-NH2)
- Relative Potency (VLA-4; binding inhibition potency relative to standard compound of SEQ ID NO:3 = 1 (normalized IC50), about one-tenth or less assigned zero): 0
- VLA-4 binding inhibition compared in words (VLA-4; compared with standard 10-mer of SEQ ID NO:3): no inhibition of VLA-4
- reduction of lymphocyte migration [1]: did not reduce migration
